Consider one molecule from patent US20060083691A1, “Intranasal opioid compositions, delivery devices and methods of using same” (priority 2000, published 2006).

The structures appear in SMILES notation.

Common to all, as to format: in vivo, human
The nature of series [1]: Pharmacokinetics and bioequivalence of butorphanol formulation, unit-dose vs multi-dose delivery device. To be noted: 2 mg intranasal. As for the experimental part:
The experiments described in this example compared bioavailability and other parameters of a butorphanol formulation when administered using a unit-dose or multi-dose delivery device. The butorphanol formulation used for this example (STADOL NS®) contained 10 mg butorphanol tartrate, 6.5 mg sodium chloride, 1.0 mg citric acid, 0.20 mg benzethonium chloride in purified water with 1.2 mg sodium hydroxide and hydrochloric acid added to adjust the pH to 5.0.
The multi-dose sprayer purported by its label to administer 0.1 ml of liquid composition by metering upon activation by the user. The unit-dose spray device was a disposable intranasal applicator that is commercially available from Pfeiffer of America under the designation “Unitdose Second Generation.” Each of the Pfeiffer spray applicators was charged with sufficient liquid to deliver a 0.1 ml dose of the butorphanol formulation. The associated glass containers were filled using a pipette under clean conditions, sealed and assembled to the applicator. Each of the applicators was weighed prior to use and after use. Qualified medical personnel administered one dose into each nostril, after which the applicator was recovered for weighing. In the case of the unit-dose applicators, two devices were used for each patient for a total of 2 mg butorphanol tartrate.
Pharmacokinetics and bioequivalence (intrasubject variabilitiy) of the above-described butorphanol formulation upon administration using either the multi-dose or unit dose delivery device was assessed. The study was initiated with 16 subjects, 15 of which completed the study to provide data for this analysis; one subject dropped out after the second period. The following analysis considers both raw and normalized data, with the latter standardized with respect to the dose dispensed.
For both the raw and normalized data, log transformations are applied to the pharmacokinetic endpoints Cmax, AUC(last), and AUC(inf). A mixed effects model was considered for each parameter. Fixed effects for the factors sequence (4 levels), period 3 levels) and device (2 levels) were included in the model. Additionally, gender, as well as the interactions between gender and each of sequence, period and device was included as a factor in each model to determine whether separate analyses would be necessary for males and females. A total of seven models were considered: Tmax, log of raw Cmax values, log of normalized Cmax values, log transformed values for raw and normalized AUC(last), and log values for raw and normalized AUC(inf). […] In addition, the lack of significance of the effects included in each model indicate that there was no evidence of unequal carryover between the two delivery devices. […]

A short description of series [2]: Pharmacokinetics of single doses of intranasal butorphanol tartrate, three-way crossover study. To be noted: for F(%): relative to 2 mg i.v. As for the experimental part:
Pharmacokinetic parameters of single doses of intranasal butorphanol tartrate using a single-dose, metered sprayer were evaluated in a 24 subject, three-way crossover study. The intranasal formulation contained aqueous buffered solution (pH 5) having 0.2% sodium citrate and 0.2% citric acid and 1 mg of butorphanol tartrate per ml. […] Each volunteer received three treatments: (1) 2 mg of i.v. butorphanol, (2) 2 mg of intranasal butorphanol, and (3) 1 mg of intranasal butorphanol. Each treatment was separated by a 6 day washout period.

Series [3] is described as follows: Pharmacokinetics of single or multiple doses of intranasal butorphanol tartrate, two-way crossover study. The procedure: Pharmacokinetic parameters of single doses or multi doses of intranasal butorphanol tartrate using a single-dose, metered sprayer were evaluated in a 12 subject, two-way crossover study. The butorphanol formulation used was as described in Example 2. Each volunteer received either 1 or 2 mg of intranasal butorphanol as a single does (Treatment A) and 1 or 2 mg of intranasal butorphanol every six hours for seven doses (Treatment B). The butorphaonol composition was substantially as described in Example 2. During phase 1, 12 subjects received a single 1 mg dose. During phase 2, those who received the 1 mg single dose received 1 mg every six hours for seven doses. During phase 3, those who received the 2 mg single dose received 2 mg every six hours for seven doses. Serial blood samples were collected over 12 hours. Pharmacokinetic parameters are show in Table 5.

The mark [4] stands for this setting: Multiple Dose 1 mg q 6 hr intranasal.
Setting [5] is: Multiple Dose 2 mg q 6 hr intranasal.

A word on the Cmax: it is the peak of the concentration-time curve. On to `O=C(O)C(O)C(O)C(=O)O.Oc1ccc2c(c1)[C@@]13CCCC[C@@]1(O)[C@@H](C2)N(CC1CCC1)CC3` [butorphanol tartrate], for which the “AUC0-t” value in series [1] (STADOL NS multi-dose device) is “about 9329 pg*hr/ml”; in series [2] (1 mg intranasal), 4.88 ± 1.5 ng·h/mL; in series [2] (2 mg i.v.), 12.59 ± 2.3 ng·h/mL; in series [2] (2 mg intranasal), 9.51 ± 1.9 ng·h/mL; in series [3] (setting [4]), 7.21 ng·h/mL; in series [3] (setting [5]) it was 15.75 ng·h/mL. Also, the AUC0-t in series [3] (Single Dose 1 mg intranasal) came out at 3.80 ng·h/mL; in series [3] (Single Dose 2 mg intranasal), 9.55 ng·h/mL. For the same molecule, the Cmax entry was “about 4027 pg/ml” in series [1] (STADOL NS multi-dose device); 1.67 ± 0.7 ng/mL in series [2] (1 mg intranasal); 10.32 ± 2.7 ng/mL in series [2] (2 mg i.v.); 3.38 ± 1.3 ng/mL in series [2] (2 mg intranasal); 1.55 ng/mL in series [3] (setting [4]); 3.80 ng/mL in series [3] (setting [5]). Moreover, the Cmax in series [3] (Single Dose 1 mg intranasal) turned out to be 1.46 ng/mL; in series [3] (Single Dose 2 mg intranasal), 4.13 ng/mL. For the same molecule, the Tmax result in series [1] (STADOL NS multi-dose device) is recorded as “about 0.245 hr”. The AUC entry in series [1] (unit-dose device) was “about 10661 pg*hr/ml”. The “F(%)” value amounted to 80.2 ± 29.1% in series [2] (1 mg intranasal) and 77.6 ± 18.3% in series [2] (2 mg intranasal). Further, the Tmax range entry in series [3] (setting [4]) is “(0.25-3.0)”; in series [3] (setting [5]), “(0.25-0.75)”; in series [3] (Single Dose 1 mg intranasal), “(0.17-1.02)”; in series [3] (Single Dose 2 mg intranasal), “(0.167-0.5)”.
